Measurements taken from US20250241893A1, “TREATMENT OF COGNITIVE DYSFUNCTION” (GH RESEARCH IRELAND LIMITED, priority 2022, published 2025).
“Also recorded” adds a separate entry of the source.

Assays:
[1] = system: Escherichia coli (WP2 uvrA pKM101); test: Bacterial mutation test in Escherichia coli; assay type: cell-based; conditions: up to 5000 μg/plate, absence and presence of rat liver S-9
Description: These conditions included treatments at concentrations up to 5000 μg/plate (the maximum recommended concentration according to current regulatory guidelines), in the absence and in the presence of a rat liver metabolic activation system (S-9).

[2] = Pharmacokinetics of 5-MeO-DMT and bufotenine after inhalation; assay type: in vivo, human; conditions: 3 hours after inhalation, whole dose range (6 mg, 12 mg, 18 mg)
Description: Blood samples were obtained at 1; 2; 4; 7; 10; 15; 20; 30; 45 min and 1; 1.5; 2; 3; 4 hours after administration. […] PK parameters were generated by algebraic analysis of the concentration versus time plots for each individual. The analysis was carried out using the software Phoenix WinNonlin 6.3.

[3] = system: patients with postpartum depression (PPD); test: Clinical trial of inhaled 5-MeO-DMT in postpartum depression; conditions: one PPD patient
Description: The single-arm, open-label clinical trial will involve 15 adult female patients with clinically diagnosed postpartum depression (PPD).
The second dose (12 mg) will only be administered if: • a. A peak experience (total score of • 75) has not been achieved following the 6 mg dose, and • b. The 6 mg dose was safe and well-tolerated according to the investigator, • c. Any psychoactive effects (PsE) of the prior dose have subsided, and • d. Pre-dose vital parameters and forced expiratory volume in one second (FEV1) are in normal range, or if outside of the normal range, are not clinically significant according to the investigator. • 3. Similarly, a third dose (18 mg) will only be administered if: • a. A peak experience (total score of • 75) has not been achieved following the 12 mg dose, and • b. The 12 mg dose was safe and well-tolerated according to the investigator, and • c. Any PsE of the prior dose have subsided, and • d. Pre-dose vital parameters and forced expiratory volume in one second (FEV1) are in normal range, or if outside of the normal range, are not clinically significant according to the investigator.
The patients will be assessed for a peak psychedelic experience (based on a patient-scored visual analogue scale, the PE scale), sedation, and other endpoints after dosing.
Follow-up visits are planned for Day 1, and Day 7 after the dosing day.
The following criteria must be met by all patients considered for clinical trial participation: • 1. Is female and in the age range between 18 and 45 years (inclusive) at screening. • 2. Has a body mass index (BMI) in the range of 18.5 and 35 kg/m^2 (inclusive) at screening. • 3. Meets the trial criteria for PPD as assessed by a trial psychiatrist or registered psychologist: • a. Diagnosis of Major Depressive Disorder without psychotic features, confirmed by the Mini-International Neuropsychiatric Interview (MINI), with peri-partum onset that began no earlier than gestation and no later than the first 4 weeks postpartum. • b. Has a Montgomery-Asberg Depression Rating Scale (MADRS) total score of equal to or greater than 28 at screening and pre-dose on Day 0. • 6. […] Patients must have a negative pregnancy test at screening and on the pre-test day (Day −1). • 5. Is willing to delay start of other antidepressant or anxiety medication until after the end of the trial at Day 7 and agrees to keep any psychotherapy unchanged during the trial.
A potential patient who meets any of the following key exclusion criteria will be excluded from participation in this trial: • 1. Has, based on history, psychiatric assessment, and evaluation of the MINI, a current or prior diagnosis of bipolar disorder, a manic or hypomanic episode, a psychotic disorder, Major Depressive Disorder (MDD) or other mood disorder with psychotic features, obsessive compulsive disorder, post-traumatic stress disorder (PTSD), autism spectrum disorder, borderline personality disorder, schizophrenia, delusional disorder, paranoid personality disorder, schizoaffective disorder, clinically significant intellectual disability, or any other psychiatric comorbidity that renders the patient unsuitable for the trial according to the investigator's judgment. • 2. Has one or more first or second degree relatives with a current or previously diagnosed bipolar disorder, psychotic disorder or other mood disorder (including MDD) with psychotic features. • 3. Is in the judgement of a trial psychiatrist or registered psychologist, at significant risk for suicide based on history, psychiatric assessment, and evaluation of suicidal ideation and suicidal behaviour based on the Columbia-Suicide Severity Rating Scale (C-SSRS). • 4. Has taken anti-depressive medication within 14 days or 5 half-lives (whichever is longer) prior to dosing (exception: within the last 5 weeks in the case of fluoxetine). • 5.

COc1ccc2[nH]cc(CCN(C)C)c2c1 [5-MeO-DMT]
Mutation induction [1]: did not induce mutation | Detectability in the plasma [2]: no longer detectable | ECG (3 hours), safety laboratory analyses (7 days), CADSS (3 hours, 1 day, 7 days) [3]: unremarkable | MADRS remission (MADRS total score equal or less than 10) [3]: fulfilled | MADRS response (at least 50% improvement from baseline) [3]: fulfilled | Reported adverse events (cramping left abdominal pain and headache, Day 0) [3]: mild, short-lasting and resolved spontaneously | Total MADRS improvement ([3]; 2 hr, baseline 29): 24 | Total MADRS score ([3]; 2 hr, baseline 29): 5 | MADRS Lassitude score ([3]; Day 1, baseline 3): 0 | BPRS Tension improvement ([3]; Day 1, baseline 6): 5 | Total MADRS improvement ([3]; Day 1, baseline 29): 29 | Total MADRS score ([3]; Day 1, baseline 29): 0 | BIMF item 16 (I worry about how other people judge me (as a mother)) score ([3]; Day 7, Day 0 score 3): 5 | BIMF item 10 (I trust my own feelings (instincts) when taking care of my baby) score ([3]; Day 7, Day 0 score 5): 6 | BIMF functional domain Adjustment score ([3]; Day 7, Day 0 score 5, maximum possible 12): 6 | BIMF functional domain Self Care score ([3]; Day 7, Day 0 score 9, maximum possible 18): 13 | BIMF functional domain Infant Care score ([3]; Day 7, Day 0 score 12, maximum possible 12): 12 | BIMF functional domain Mother-Child Interaction score ([3]; Day 7, Day 0 score 15, maximum possible 18): 17 | BIMF functional domain Social Support score ([3]; Day 7, Day 0 score 17, maximum possible 18): 18 | BIMF functional domain Management score ([3]; Day 7, Day 0 score 28, maximum possible 36): 33 | BIMF functional domain Psychological Well-being score ([3]; Day 7, Day 0 score 44, maximum possible 60): 53 | Total MADRS improvement ([3]; Day 7, baseline 29): 28 | Total MADRS score ([3]; Day 7, baseline 29): 1 | BIMF total score percentage improvement ([3]; Day 7, from 92 to 105 (possible total 120)): 14% | BIMF TOTAL Δ (Day 7) ([3]; Day 7 vs Day 0): 13 | BIMF functional domain Adjustment % improvement ([3]; Day 7 vs Day 0): 20.00% | BIMF functional domain Infant Care % improvement ([3]; Day 7 vs Day 0): 0.00% | BIMF functional domain Management % improvement ([3]; Day 7 vs Day 0): 18% | BIMF functional domain Self Care % improvement ([3]; Day 7 vs Day 0): 44% | Time to clinical remission after administration ([3]; IDR): ≤ 2 h | Tolerability of inhaled 5-MeO-DMT ([3]; IDR 6 mg then 12 mg): well tolerated with no inhalation-related adverse events; also recorded: well tolerated | BPRS Tension improvement ([3]; discharge, baseline 6): 5 | Changes in vital parameters ([3]; shortly after administration): temporary, clinically non-relevant increase in heart rate and blood pressure
